Assay results from patent US7282599B2, “Dithiocarbamate antiviral agents and methods of using same” (Avir Green Hills Biotechnology Research Devlopment Trade AG, priority 2001, dated 2007).

Assays:
[1] = system: human immunodeficiency virus; settings: asymptomatic and minimally symptomatic HIV patients, HIV87 Study Group 1993; cited from earlier work
[2] = system: HRV2; assay: Crystal violet staining of cell lawn of HRV2-infected HeLa cells; type: cell-based, human rhinovirus; settings: HRV2 100 TCID50 per cell, compound added 1 hour after infection, stained after 24 hours
[3] = system: respiratory RNA viruses; assay: Action of antioxidants against respiratory RNA viruses (summary statement); type: cell-based
[4] = system: influenza virus; settings: Knobil et al., Am. J. Physiol. 1998; cited from earlier work
[5] = system: HRV serotypes 1A, 2, 14 and 16; assay: Virus progeny titer (TCID50 test) in supernatants of HRV-infected HeLa cells; type: cell-based, human rhinovirus; settings: 20 TCID50 per cell, PDTC 125 μm
Method: PDTC was added after infection of cells with various HRV serotypes to test the effectiveness during infections by HRV. HeLa cells were infected with HRV serotypes 1A, 2, 14 and 16 with 20 TCID50 (tissue culture infectious dose 50) per cell. PDTC was added at the same time to a concentration of 125 μm in the medium. Excess virus was removed 4 hours after infection, while PDTC was added to the fresh medium. 24 hours (FIG. 1, top) and 48 hours (FIG. 1, bottom) after the infection (p. I.), the supernatants were collected and the amount of virus progeny was determined by TCID50 tests. Treatment of cells with PDTC reduced the virus titer (vt) by 10^3 after 24 hours (FIG. 1, top).

[6] = system: HRV2, HRV14, HRV1A and HRV16; assay: HRV-induced cytopathic effects (morphology) in HeLa cells; type: cell-based, human rhinovirus
Method: Morphological changes in the cells, called “cytopathic effects” (CPE) occur in the late stages of a rhinoviral infection. These HRV induced CPE are characterized as cell rounding, shrinkage, deformation of the nucleus and chromatin condensation. When HeLa cells are infected with HRV2, HRV14, HRV1A and HRV16 at 100 TCID50 per cell, a distinct cytopathic effect is visible after 8 hours post-infection.

[7] = system: HRV2; assay: Cell Titer 96 cell proliferation assay, viability of HRV2-infected HeLa cells; type: cell-based, human rhinovirus; settings: for viability of infected cells: HeLa cells, HRV2 20 TCID50/cell, 24 hours after infection, even slight concentrations; for protective effect during viral proliferation: determined as described in Example 3, HRV2-infected HeLa cells
Text: A cell proliferation assay was done to test the effect of PDTC or DDTC on the viability of the cells during a viral infection.

[8] = system: HRC serotypes 1A, 2, 14 and 16; assay: Time of addition, proliferation assay of HRV-infected cells; type: cell-based, human rhinovirus; settings: PDTC 125 μM, 20 TCID50 per cell
Method: To determine the stage of the viral life cycle attacked by PDTC, PDTC was added at various times following virus infection with 20 TCID50 per cell, and proliferation assays were done. […] This effect is also not specific for a single serotype, as HRC serotypes 1A, 2, 14 and 16 were used. Only PDTC treatment (125 μM) of the cells more than 8 hours after infection reduced the protective effect.

[9] = system: HRV2; assay: Time of addition, viral titers in supernatants of HRV2-infected cells; type: cell-based, human rhinovirus
Method: Similar results were obtained if the viral titers (vt) were determined in the supernatants of infected and PDTC-treated cells (see FIG. 4B). Addition of PDTC up to four hours after infection reduced the titer of the HRV2 produced by 10^3.

[10] = system: eIF4GI; assay: Western blot of eIF4GI splitting by viral 2A protease in HRV2-infected HeLa cells; type: cell-based, human rhinovirus; settings: HRV2 100 TCID50 per cell
Method: Various proteolytic activities were determined to examine the course of a rhinoviral infection in the presence and absence of PDTC. Enzymatic splitting of the cellular translation initiation factors 4GI (eIF4GI) and 4GII by viral 2A protease, ending host cell protein synthesis, is one characteristic proteolytic activity that occurs in the course of infection with rhinoviruses and enteroviruses. Depending on the HRV serotype, eIF4G proteins are split in an early stage of infection. Another splitting activity during a rhinoviral infection, only recently described, is splitting of the intermediary filament protein cytokeratin 8. This splitting also depends on the 2A protease, but occurs at a later stage of the infection. In order to investigate the effect of a PDTC treatment on the course of a virus infection, a Western blot analysis was done to analyze these 2A protease substrates.
Medium was removed at the indicated times for the Western blot analysis. The cells were lysed by adding 100 μl of protein buffer (8% sodium dodecyl sulfate, 20% β-mercapto-ethanol, 20% glycerol, 0.04% bromphenol blue). 20 μl protein extract was separated by SDS-PAGE on each track, and blotted onto PVDF membranes. […] The molecular weights were determined by using a prestained SDS-7B marker (Sigma).
Splitting of eIF4GI can be detected 4 hours after infection in HeLa cells infected with HRV2 (100 TCID50 per cell). […]

[11] = system: rhinoviral proteins VP1, VP2 and VP3; assay: Western blot of HRV2 capsid proteins in infected HeLa cells; type: cell-based, human rhinovirus; settings: HRV2 100 TCID50 per cell
Text: To determine the effect of PDTC on the expression of viral proteins, capsid proteins of HRV2 were detected by Western blot analysis in protein extracts from HRV2-infected HeLa cells (100 TCID50 per cell) (see FIG. 6). The Western blot analysis was done as described above in Example 5, with use of a polyclonal rabbit antiserum against HRV2. Significant amounts of the rhinoviral proteins VP1, VP2 and VP3 were detected in untreated cells six hours after infection.

[12] = system: A/PR8/34; assay: microbe, parasite or virus in culture; type: cell-based, influenza A virus; settings: 4 days
[13] = system: A/Vienna/47/96; assay: microbe, parasite or virus in culture; type: cell-based, influenza A virus; settings: 4 days
[14] = system: influenza A/PR8/34 and influenza A/Vienna/47/96; assay: microbe, parasite or virus in culture; type: cell-based, influenza A virus
[15] = system: influenza virus; assay: Mice inoculated intranasally with lethal dose of influenza virus, intranasal treatment; type: in vivo, C57/BL6 mice; settings: 25 μl 600 mM PDTC intranasally
Method: Ten C57/BL6 mice were inoculated intranasally with a lethal dose (50 μl 10^7 pfU). One hour later, they were treated intranasally with 25 μl 600 mM PDTC or with 25 μl PBS. The mice were examined and treated every 12 hours for the first 48 hours and then every 24 hours. The weights of the mice were determined and reported in % of the initial weight (% w) (FIG. 11A). […] All the mice treated with PBS (diamonds) died within 12 days after the infection (% s=% surviving).

[16] = system: equine rhinitis A virus (ERAV); type: cell-based; settings: vero cells, 10 TCID50 ERAV per cell, PDTC 1 mM-50 μM, 24 hours after infection
Method: The reduction of ERAV viral propagation by addition of PDTC was investigated as follows: vero cells were infected with 10 TCID50 ERAV per cell. At the same time, PDTC was added at different concentrations (1 mM-50 μM). The inoculum was removed 4 hours after infection, and fresh medium with PDTC was added. The supernatants were removed 24 hours after the infection, and the viral titers were determined in a standard plate assay.

[17] = system: FMV virus O-Manisa; assay: microbe, parasite or virus in culture; type: cell-based, foot and mouth disease virus
[18] = system: FMV virus O-Manisa; type: cell-based, foot and mouth disease virus; settings: IB-RS-2 cells, 0.001 TCID50 per cell, PDTC up to 200 μM, 24 hours after infection
[19] = system: FSME virus (Neudörfel); assay: FSME virus proliferation in suspended cells; type: cell-based; settings: same concentrations, 0.975 to 1000 μM
Method: Similarly, we investigated whether PDTC can affect virus proliferation in suspended cells. The same concentrations as above were tested.

[20] = system: EMC virus; assay: Mice infected intraperitoneally with EMC virus, intraperitoneal treatment; type: in vivo, C57B16 mice; settings: 50 μl of 50 mM PDTC per day i.p.
Method: C57B16 mice were infected intraperitoneally with 10 TCID50 of EMC virus. Then, the control group was treated intraperitoneally once daily with PBS. Two other groups were treated with 50 μl of 50 mM PDTC per day. Treatment of one group (PDTC) was started simultaneously with the infection, while treatment of the other group (PDTC 24 hpi) was started only 24 hours after the infection.

[21] = system: BHK-21 cells; settings: PDTC 0.975 to 1000 μM, 4 days at 37° C.
[22] = system: HeLa cells; assay: Cell proliferation assay on uninfected HeLa cells (toxicity control); settings: for toxicity of the concentration used to inhibit the viral infections: HeLa cells; for effects on uninfected cells (viability): compound alone, uninfected HeLa cells
[23] = system: mengovirus virions; settings: Calvert, Interferon Research 1990; cited from earlier work

Compound: CCN(CC)C(=S)S [dithiocarb]
- cure or improvement of AIDS patients [1]: does not cause cure or improvement of the patients

Compound: CC(=O)N[C@@H](CS)C(=O)O [NAC, N-acetylcysteine, reference compound]
- prevention of destruction of the cell lawn by HRV2 infection [2]: not
- action against respiratory RNA viruses [3]: no action at all
- inhibition of influenza virus infection or replication [4]: neither NAC nor PDTC inhibits influenza virus infection or replication

Compound: S=C(S)N1CCCC1 [PDTC, pyrrolidine dithiocarbamate]
- reduction of the virus titer (vt) ([5]; supernatants 24 hours after infection): 10^3
- virus titer in supernatants ([5]; supernatants 48 hours after infection): significant reduction of the virus titer
- morphology of infected cells ([6]; 125 μM PDTC, 8 hours after the infection): cannot be distinguished from the morphology of non-infected (n. i.) cells
- appearance of cytopathic effects ([6]; HeLa cells, 100 TCID50 per cell, PDTC added during the infection): prevents the appearance of these cytopathic effects
- viability of infected cells [7]: significantly increased
- time of PDTC treatment after infection at which the protective effect was reduced [8]: more than 8 hours
- time of addition offering the best protection against virus induced loss of proliferation [8]: within the first six hours after infection
- viral titers produced ([9]; PDTC treatment started only 6 hours after infection): significantly reduced
- reduction of the titer of the HRV2 produced ([9]; addition of PDTC up to four hours after infection): 10^3
- splitting of eIF4GI ([10]; 4 and 8 hours after infection): No splitting of eIF4GI can be detected
- splitting of eIF4GI ([10]; about 24 hours after infection): slight eIF4GI splitting can be detected
- expression of VP1, VP2 and VP3 ([11]; about 24 hours after infection): Weak expression
- expression of capsid proteins VP1, VP2 and VP3 ([11]; within the first 8 hours after infection): prevented expression of those capsid proteins
- prevention of destruction of the cell lawn by HRV2 infection [2]: can prevent that effect
- inhibition at 1200 µM ([12]; Influenza A virus, PR8, 96 h, PDTC 1200 μM, read-out: inhibition (TCID50 assay)): > 99.9%
- reduction of TCID50 ([12]; PDTC 300 μM): 76.4%
- inhibition at 1200 µM ([13]; Influenza A virus, 96 h, PDTC 1200 μM, read-out: inhibition (TCID50 assay)): > 99.9%
- reduction of TCID50 ([13]; PDTC 300 μM): 82.2%
- EC50 ([14]; Influenza A virus, PR8, Vero, 96 h, read-out: PDTC concentration for 50% reduction of positive wells): 50 to 100 µM
- PDTC concentration for complete inhibition of cytopathic effects ([14]; all viruses, vero cells): 600 µM
- weight of infected mice ([15]; 7 days after the infection): gained weight
- survival of infected mice ([15]; from one hour after lethal inoculation): all the mice treated with PDTC (squares) survived the virus infection
- virus titer (vt) in the supernatant in comparison to untreated cells [16]: decreases
- protection against the cytopathic effect of the virus ([17]; 600 μM PDTC, IB-RS-2 cells, 0.1 TCID50 per cell, 24 hours): 100%
- EC50 ([17]; Foot-and-mouth disease virus, 24 h, read-out: concentration range for 50% reduction of infected wells): 75 to 150 µM
- reduction of virus titer compared with the control sample [18]: more than 2 log steps
- reduction of virus proliferation in suspended cells [19]: no indication of reduction of virus proliferation
- changes of the mouse weights after the beginning of the infection ([20]; started with infection or 24 hours after): no difference in treated and untreated mice
- average time to death for the infected mice ([20]; every group: PBS, PDTC, PDTC 24 hpi): 5.5 days
- toxic effects on cell monolayer (microscopic examination) [21]: no indications of toxic effects
- inhibition of influenza virus infection or replication [4]: neither NAC nor PDTC inhibits influenza virus infection or replication
- toxicity of the concentration used to inhibit the viral infections [22]: exhibits no toxicity
- effects on uninfected cells (viability) [22]: only minor effects on uninfected cells

Compound: Cc1c(C)c2c(c(C)c1O)CCC(C)(C(=O)O)O2 (centres unmarked) [Trolox]
- protective effect during viral proliferation [7]: none of these antioxidants had any protective effect

Compound: CCN(CC)C(=S)S [DDTC, N, N-diethyldithiocarbamate]
- viability of infected cells [7]: significantly increased
- action on mengovirus virions [23]: inactivates mengovirus virions
- toxicity of the concentration used to inhibit the viral infections [22]: exhibits no toxicity
- effects on uninfected cells (viability) [22]: only minor effects on uninfected cells

Compound: O=C1O[C@H]([C@@H](O)CO)C(O)=C1O [Vitamin C]
- protective effect during viral proliferation [7]: none of these antioxidants had any protective effect
- action against respiratory RNA viruses [3]: no action at all

Compound: OCCS [β-mercaptoethanol]
- protective effect during viral proliferation [7]: none of these antioxidants had any protective effect
- action against respiratory RNA viruses [3]: no action at all

Compound: Vitamin E
- action against respiratory RNA viruses [3]: no action at all
